{"source": "paper PMC5847527", "about": "“Identification of a novel 2-oxindole fluorinated derivative as in vivo antitumor agent for prostate cancer acting via AMPK activation” (Scientific Reports, 2018)", "key": {"PC-3 cells": {"system": "PC-3 cells", "test": "Cell cycle analysis by flow cytometry (Propidium Iodide), PC-3", "assay_type": "cell-based, human", "settings": "PC-3, 24 h, 25 μM and 50 μM tested (concentration of this value not stated)", "procedure": "For that, we treated PC-3 and LNCaP cells with 25 μM and 50 μM of compound 8c for 24 h and performed cell cycle analysis by flow cytometry using Propidium Iodide (PI). […] It is worthy to note that when PC-3 cells were treated with compound 8c, 80% of cells were in subG0 phase (Fig. 4A).\nFigure 4 Cell Cycle analysis in 8c-treated prostate cancer cells. (A) PC-3 and LNCaP cells were treated with compound 8c for 24 hours and cell cycle analysis was analyzed by flow cytometry using Propidium Iodide (PI). Percentage of cells in subG0, G1, S, and G2/M phases is indicated in the histogram. (B) Levels of Cyclin D1, p-p53, p53, p21 and cleaved Caspase 3 (17 kDa fragment) were determined by Western blot. Upper panel, representative Western blot of two different experiments. β-tubulin (β-Tub) serves as a loading control. Lower panel, the densitometric analyses of bands represented as the mean ± SD of the two different experiments. *p < 0.05 and **p < 0.01 compared with the control group by the Student’s t-test.\nFlow cytometry was used to detect the distribution of cell cycle. After being cultivated with the treatment, 10^5 cells in 35 mm culture dish were harvested in 0.35% trypsin, collected and fixed with 70% cold ethanol at 4 °C for 1 h. Then, cells were centrifuged at 1500 g for 5 min and incubated in 0.5 ml PBS containing 0.1 mg/ml RNase for 30 min at 37 °C. […]"}, "[1]": {"target": "T1, human recombinant AMPK isoform α1β1γ1 (Homo sapiens, UniProt P54619+Q13131+Q9Y478)", "T1 construct": "purchased Invitrogen", "T1 sequence (Q13131 whole entry, canonical isoform)": "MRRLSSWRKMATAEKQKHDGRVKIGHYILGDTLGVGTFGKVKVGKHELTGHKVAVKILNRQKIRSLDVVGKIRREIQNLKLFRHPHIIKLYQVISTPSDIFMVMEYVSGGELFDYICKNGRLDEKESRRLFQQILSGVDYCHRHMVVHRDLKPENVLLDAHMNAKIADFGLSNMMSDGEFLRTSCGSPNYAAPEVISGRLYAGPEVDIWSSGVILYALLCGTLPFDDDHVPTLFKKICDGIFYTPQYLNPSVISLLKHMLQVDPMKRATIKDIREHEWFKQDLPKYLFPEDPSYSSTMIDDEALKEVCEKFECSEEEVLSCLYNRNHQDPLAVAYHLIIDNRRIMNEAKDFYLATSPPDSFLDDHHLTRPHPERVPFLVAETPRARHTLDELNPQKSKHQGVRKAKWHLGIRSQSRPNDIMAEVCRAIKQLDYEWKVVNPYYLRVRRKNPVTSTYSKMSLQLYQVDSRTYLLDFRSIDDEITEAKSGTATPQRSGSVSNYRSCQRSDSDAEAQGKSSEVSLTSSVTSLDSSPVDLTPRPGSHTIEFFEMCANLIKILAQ", "T1 sequence (Q9Y478 whole entry, canonical isoform)": "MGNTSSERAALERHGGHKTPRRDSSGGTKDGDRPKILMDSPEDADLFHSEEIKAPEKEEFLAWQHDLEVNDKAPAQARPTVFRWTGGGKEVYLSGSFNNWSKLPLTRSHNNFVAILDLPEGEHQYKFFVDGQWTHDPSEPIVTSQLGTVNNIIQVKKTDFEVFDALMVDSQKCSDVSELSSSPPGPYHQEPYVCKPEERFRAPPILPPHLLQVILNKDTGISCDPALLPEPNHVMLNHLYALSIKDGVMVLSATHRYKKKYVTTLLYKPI", "T1 sequence (P54619 whole entry, canonical isoform)": "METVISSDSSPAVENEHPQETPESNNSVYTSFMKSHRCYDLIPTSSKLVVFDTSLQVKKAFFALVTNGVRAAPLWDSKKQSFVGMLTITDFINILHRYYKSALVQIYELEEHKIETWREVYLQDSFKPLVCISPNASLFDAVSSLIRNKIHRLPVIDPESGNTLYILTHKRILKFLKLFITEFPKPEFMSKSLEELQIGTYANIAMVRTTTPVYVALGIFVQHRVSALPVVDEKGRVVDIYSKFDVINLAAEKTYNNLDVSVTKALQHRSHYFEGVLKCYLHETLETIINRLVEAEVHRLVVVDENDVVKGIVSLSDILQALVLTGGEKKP", "test": "In vitro AMPK enzymatic assay (AMARA peptide, Delfia), α1β1γ1", "assay_type": "biochemical", "settings": "30 μM, p < 0.001", "protocol": "This assay evaluated the ability of the compound to activate AMPK and in turn phosphorylate the synthetic substrate peptide [sequence].\nData are the mean ± S.D. of four experiments. **p < 0.01 and ***p < 0.001 compared by the Student’s t-test.\nThe effect of compounds in the in vitro human recombinant AMPK activity assay was measured by monitoring phosphorylation of the “AMARA” peptide using Delfia technology. […] Final concentration of DMSO was 1%. Reactions were initiated by the addition of AMPK (0.1U). Following mixing, the plates were incubated for 30 min at room temperature. Enzyme activity was assayed by using an anti-phospho-serine antibody to measure the quantity of phosphate incorporated into the AMARAA peptide."}, "AMPK": {"system": "AMPK", "test": "Characterization of AMPK activation by Western blot in PC-3 and LNCaP cells (Dorsomorphin, siRNA)", "assay_type": "cell-based, human", "procedure": "To further confirm the compound 8c-induced activation of AMPK, PC-3 and LNCaP cells were incubated with the compound for 1 h and 24 hours in the presence of the AMPK inhibitor Dorsomorphin. […] Accordingly, ACC phosphorylation was increased at 1 h and 24 h and prevented by Dorsomorphin in both cell lines. AMPK inhibits mTORC1 through phosphorylation of Raptor on two well-conserved serine residues (ser722 and ser792) inducing cell-cycle arrest in response to an energy stress. To further support the 8c-induced AMPK activation, we determined Raptor phosphorylation on Ser792 in prostate cells.\nFigure 5 AMPK activation by compound 8c in prostate cancer cells. (A) PC-3 and LNCaP cells were treated with vehicle, 25 µM compound 8c, 25 µM compound 8c + 5 μM Dorsomorphin (8c + D) or 5 μM Dorsomorphin (D), for 1 hour or 24 hours and levels of the phosphorylated AMPK (pAMPK), phosphorylated ACC (pACC), phosphorylated Raptor (pRaptor) forms and HIF1α were determined by Western blot. Upper panel, representative Western blot of three different experiments. β-tubulin (β-Tub) serves as a loading control. Lower panel, densitometric analyses of bands represented as the mean of the ratio pAMPK/AMPK or pACC/ACC. (B) Cell viability monitored by MTT assay in PC-3 and LNCaP cells treated with vehicle, 25 µM and 50 μM compound 8c alone or in the presence of 5 μM Dorsomorphin or transfected with control siRNA (siC) or α1AMPK-selective siRNA (siAMPK). (C) LNCaP cells were treated with vehicle, 25 µM compound 8c, 25 µM compound 8c + 5 μM Dorsomorphin (8c + D) or 5 μM Dorsomorphin (D), for 24 hours and levels of Androgen Receptor (AR), Prostate specific antigen (PSA) and Prostate specific membrane antigen (PSMA) were determined by Western blot.Values were normalized with the control and represent the mean ± SD of at least three independent experiments. *p < 0.05 and **p < 0.01 compared to control and ^#p < 0.05 and ^##p < 0.01 compared with 8c-treated group by the Student’s t-test.\nAMPK is a heterotrimeric protein composed by catalytic (α) and regulatory (β and γ) subunits. In mammals, different isoforms of α, β and γ subunits can associate to produce up to 12 AMPK different combinations. […]\nFigure 6 Phosphorylation of AMPK and ACC in prostate cells transfected with selective AMPKα1 or AMPKα2 siRNA. […] Levels of the phosphorylated AMPK (pAMPK), phosphorylated ACC (pACC) and their total forms were determined by Western blot. […]\nCells were lysed in Lysis buffer (50 mM Tris pH 7.4, 0.8 M NaCl, 5 mM MgCl2, 0.1% Triton X-100) containing Protease Inhibitor and Phosphatase inhibitor Cocktails (Roche, Basel, Switzerland). Protein concentrations were measured by BioRad™ protein assay kit (Richmond, CA, USA). […]"}}}
{"smiles": "O=C1Nc2ccccc2C1(F)Cc1ccc(-c2ccccc2)o1", "note": "(centres unmarked) [Compound 8c, 3-fluoro-3-((5-phenylfuran-2-yl)methyl)indolin-2-one]", "values": [{"measurement": "cells in subG0 phase", "setting": "PC-3 cells", "result": 80, "unit": "%"}, {"measurement": "increase of AMPK α1β1γ1 activity", "setting": "[1]", "result": 75, "unit": "%"}, {"measurement": "activation of AMPK at 24 hours", "setting": "AMPK; PC-3 and LNCaP cells, 25 µM, 24 hours vs 1 hour", "result": "also seen at 24 hours, being even more robust that at 1 hour of treatment"}, {"measurement": "8c-induced AMPK phosphorylation with AMPKα1 subunit knocked down", "setting": "AMPK; siRNA AMPKα1, 25 μM, 1 h", "result": "almost totally blocked"}, {"measurement": "AMPK and ACC phosphorylation with AMPKα2 subunit silenced", "setting": "AMPK; siRNA AMPKα2, 25 μM, 1 h", "result": "still was able to phosphorylate AMPK and ACC at a similar level than in non-silenced (siC) cells"}]}
